Source: the supplement of paper PMC5908809

Columns and labels:
[1] = test system: normal NK cells expanded with K562-aAPC; assay: percent inhibition of viability; higher = more inhibition; conditions: 72 h, IL-2 2.5 ng/mL
Description: (§1)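 Drug sensitivity and resistance testing on K562-aAPC-expanded normal NK cells: 5 concentrations (10-fold steps over a 10,000-fold range), 72 h at 37 °C, viability by CellTiter-Glo normalised to DMSO and benzethonium chloride controls; DSS from the fitted curve.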

IMC-1 (IL-2 20 ng/mL) [2] = assay: drug sensitivity score (DSS) (DSS units); higher = more sensitive; extreme values may be limits of the assay; conditions: 72 h
[3] = test system: normal primary NK cells, pool 2 (3 donors) (IL-2 2.5 ng/mL); assay: as above; conditions: 72 h
DERL-7 (IL-2 2.5 ng/mL) [4] = assay: as above; conditions: 72 h
[5] = test system: normal primary NK cells, pool 3 (3 donors) (IL-2 2.5 ng/mL); assay: as above; conditions: 72 h
[6] = test system: normal primary NK cells, pool 1 (3 donors), resting (IL-2 0 ng/mL); assay: as above; conditions: 72 h
NK-YS (IL-2 2.5 ng/mL) [7] = assay: as above; conditions: 72 h
YT (IL-2 2.5 ng/mL) [8] = assay: as above; conditions: 72 h
NKL (IL-2 2.5 ng/mL) [9] = assay: as above; conditions: 72 h
SNK-6 (IL-2 2.5 ng/mL) [10] = assay: as above; conditions: 72 h
NK-92 (IL-2 2.5 ng/mL) [11] = assay: as above; conditions: 72 h
KAI3 (IL-2 2.5 ng/mL) [12] = assay: as above; conditions: 72 h
[13] = test system: normal primary NK cells, pool 1 (3 donors) (IL-2 2.5 ng/mL); assay: as above; conditions: 72 h
KHYG-1 (IL-2 2.5 ng/mL) [14] = assay: as above; conditions: 72 h
IMC-1 (IL-2 20 ng/mL) [15] = assay: percent inhibition of viability; higher = more inhibition; conditions: 72 h
[16] = test system: normal primary NK cells, pool 2 (3 donors) (IL-2 2.5 ng/mL); assay: as above; conditions: 72 h
DERL-7 (IL-2 2.5 ng/mL) [17] = assay: as above; conditions: 72 h
[18] = test system: normal primary NK cells, pool 3 (3 donors) (IL-2 2.5 ng/mL); assay: as above; conditions: 72 h
[19] = test system: normal primary NK cells, pool 1 (3 donors), resting (IL-2 0 ng/mL); assay: as above; conditions: 72 h
NK-YS (IL-2 2.5 ng/mL) [20] = assay: as above; conditions: 72 h
YT (IL-2 2.5 ng/mL) [21] = assay: as above; conditions: 72 h
NKL (IL-2 2.5 ng/mL) [22] = assay: as above; conditions: 72 h
SNK-6 (IL-2 2.5 ng/mL) [23] = assay: as above; conditions: 72 h
NK-92 (IL-2 2.5 ng/mL) [24] = assay: as above; conditions: 72 h
KAI3 (IL-2 2.5 ng/mL) [25] = assay: as above; conditions: 72 h
[26] = test system: normal primary NK cells, pool 1 (3 donors) (IL-2 2.5 ng/mL); assay: as above; conditions: 72 h
KHYG-1 (IL-2 2.5 ng/mL) [27] = assay: as above; conditions: 72 h
[28] = test system: normal NK cells expanded with K562-aAPC; assay: drug sensitivity score (DSS) (DSS units); higher = more sensitive; extreme values may be limits of the assay; conditions: 72 h; IL-2 2.5 ng/mL
Description: as §1

COc1cc(N2CCC(N3CCN(C)CC3)CC2)ccc1Nc1ncnc(Nc2ccccc2S(=O)(=O)C(C)C)n1 [ASP3026] (max concentration tested 10000 nM)
percent inhibition of viability [%]
Conditions	1 nM	10 nM	100 nM	1000 nM	10000 nM
DERL-7 (IL-2 2.5 ng/mL) [17]	0.73	-6.32	2.12	0.42	57.2
IMC-1 (IL-2 20 ng/mL) [15]	-8.57	-5.26	-7.48	-3.28	98.9
KAI3 (IL-2 2.5 ng/mL) [25]	5.1	3.91	7.67	16.4	42.7
KHYG-1 (IL-2 2.5 ng/mL) [27]	-6.71	0.13	-0.92	10.2	61.3
NK-92 (IL-2 2.5 ng/mL) [24]	-10.8	-22.5	-27.1	-14.8	22.2
NK-YS (IL-2 2.5 ng/mL) [20]	-5.41	-0.07	-1.63	6.41	44.9
NKL (IL-2 2.5 ng/mL) [22]	-3.77	-9.59	5.62	18.9	47.8
SNK-6 (IL-2 2.5 ng/mL) [23]	-14.8	-8.98	-26.5	-35.9	8.43
YT (IL-2 2.5 ng/mL) [21]	-2.02	-0.55	1.22	12.5	69.4
[1]	0.75	-1.15	0.69	7.2	96.3
[16]	-4.59	-7.52	3.32	-3.09	28.1
[18]	1.7	-6.92	8.07	2.81	13.3
[19]	-11.5	-0.46	-1.76	10.4	39.3
[26]	-1.83	5.98	6.01	9.21	38.7

Conditions	drug sensitivity score
DERL-7 (IL-2 2.5 ng/mL) [4]	3.14
IMC-1 (IL-2 20 ng/mL) [2]	5.24
KAI3 (IL-2 2.5 ng/mL) [12]	3.79
KHYG-1 (IL-2 2.5 ng/mL) [14]	5.05
NK-92 (IL-2 2.5 ng/mL) [11]	0.4
NK-YS (IL-2 2.5 ng/mL) [7]	3.39
NKL (IL-2 2.5 ng/mL) [9]	4.54
SNK-6 (IL-2 2.5 ng/mL) [10]	0
YT (IL-2 2.5 ng/mL) [8]	5.89
[3]	0.97
[5]	0.03
[6]	3.53
[13]	3.22
[28]	6.45

C#Cc1cccc(Nc2ncnc3cc(OC)c(OCCCCCCC(=O)NO)cc23)c1 [CUDC-101] (max concentration tested 10000 nM)
percent inhibition of viability [%]
Conditions	1 nM	10 nM	100 nM	1000 nM	10000 nM
DERL-7 (IL-2 2.5 ng/mL) [17]	-3.07	-2.96	19.3	100	101
IMC-1 (IL-2 20 ng/mL) [15]	-4.07	-5.13	-1.06	48.9	101
KAI3 (IL-2 2.5 ng/mL) [25]	-3.15	0.88	27.8	77.2	105
KHYG-1 (IL-2 2.5 ng/mL) [27]	1.82	3.01	36.4	99.1	106
NK-92 (IL-2 2.5 ng/mL) [24]	9.73	-1.07	19.2	85.7	105
NK-YS (IL-2 2.5 ng/mL) [20]	-4.37	0.36	0.68	57.3	105
NKL (IL-2 2.5 ng/mL) [22]	-15.6	-12.1	1.83	90.5	108
SNK-6 (IL-2 2.5 ng/mL) [23]	11.7	10.8	24.7	78.1	100
YT (IL-2 2.5 ng/mL) [21]	0.23	0.94	9.37	95.4	106
[1]	-2.26	1.39	1.83	75.4	101
[16]	-9.31	-5.49	9.37	84.5	97
[18]	-12	1.9	2.2	82.8	99.5
[19]	10.4	0.86	30.2	78.6	92.4
[26]	-3.28	-4.06	12.8	88.8	98.8

Conditions	drug sensitivity score
DERL-7 (IL-2 2.5 ng/mL) [4]	21.1
IMC-1 (IL-2 20 ng/mL) [2]	11.6
KAI3 (IL-2 2.5 ng/mL) [12]	17.9
KHYG-1 (IL-2 2.5 ng/mL) [14]	22.6
NK-92 (IL-2 2.5 ng/mL) [11]	18.1
NK-YS (IL-2 2.5 ng/mL) [7]	12.4
NKL (IL-2 2.5 ng/mL) [9]	16.5
SNK-6 (IL-2 2.5 ng/mL) [10]	17.6
YT (IL-2 2.5 ng/mL) [8]	18.8
[3]	16.7
[5]	15.3
[6]	18.1
[13]	17.9
[28]	14.3
